Experiments:
Ki-67 = test: Biopsy immunohistochemistry, Ki-67 proliferating cells in the epidermis; format: in vivo, human; settings: lesion biopsy at end of treatment; control mean 83/mm^3; P-0.027 (unpaired T test)
Procedure: (§1) Assessments were done at weeks 0, 2, 4 and 6 on the low potency treatment and at 8, 10 and 12 on the higher dose formulation, provided there were no signs or laboratory evidence of toxicity. Clinical scoring was done at each attendance and areas traced at the start and finish of treatment. Biopsies from active and control lesions were performed at the end of treatment or at withdrawal. Biopsies were not done if an adverse event such as a reaction to the application occurred as this would influence the measures being assessed.
(§2) In biopsies, epidermal thickness was measured and immunoperoxidase immunohistochemistry done using the following antibodies to count cells in a blinded fashion:
(§3) Thus, antibody Ki-67 was used to give a measure of hyperproliferation in the epidermis and CD4 helper lymphocytes were used to give a measure of auto-immune activity which drives psoriasis.
(§4) Cell counting in tissues was automated, using computer assisted image analysis (Seescan). Data was analysed by Student's T test for paired data and Wilcoxon's test.

[1] = Skin biopsy tissue concentration, four 0.7 mm horizontal sections, acetonitrile extraction (Example 1); format: in vivo; settings: human, 8 % sirolimus in the formulation
Procedure: In parallel, skin biopsies were taken from the individuals after 7 hours, the biopsy samples were glued to a glass slide and serially sectioned horizontally into 4 layers each 0.7 mm thick and extracted with acetonitrile.

[2] = Venous blood sirolimus levels after single topical application (MSGCMS); format: in vivo, human; settings: normal skin, 4, 7 and 24 hours
Procedure: A formulation was formed of 8% sirolimus and 92% of a vehicle of capric acid (50%) with benzyl alcohol (50%). This was tested in single application experiments on four individuals with normal skin.
(§5) A formulation of sirolimus (2.2%) in a vehicle comprising isopropyl myristate 40%, benzyl alcohol 10% and capric acid 50% was tested in single application experiments on three individuals with normal skin. […] After 7 hours biopsy samples were taken from two of the individuals. These were bisected in parallel with the surface to give an upper and lower half, roughly corresponding to the epidermis and dermis. The skin was homogenised with acetonitrile and sirolimus concentration was determined by HPLC.

chronic plaque psoriasis = test: Double blind left-right comparison of topical sirolimus in chronic plaque psoriasis (Example 3); format: in vivo, human
Procedure: A double blind, left-right comparison of the effect of applying topical sirolimus in formulations as described in Examples 1 and 2, to 24 patients with chronic (over three months) plaque psoriasis was conducted. (22 out of the 24 patients were eventually analysed.) A single target plaque was treated for the first 6 weeks with the lower potency formulation of Example 2. After this the active treatment was increased to the higher potency formulation of Example 1 for 6 weeks unless a clear improvement on one side had already occurred.
Subjects were all aged over 18 years, were able to apply creams and had no other significant medical problems. Transaminases were not more than twice the upper limit of normal and subjects were selected to avoid those likely to have a holiday in sunlight during the 6-12 weeks of the trial.
Before the trial started, there was a two week washout period in which only bland emollients were applied to the target lesions.
Treatment was randomised and double blind. Hands were thoroughly washed between the twice daily application of the test formulations. The active formulation was applied consistently to one plaque while a control comprising only the vehicle base was applied consistently to the plaque on the opposite side. Where possible the arms or elbows were selected as target areas as cross contamination is less likely at these sites.
as §1
The lesions were also assessed at fortnightly intervals with subjective scoring on a scale of 0-8 for erythema, thickening, and scaling. […] These included pulsed A scan ultrasound measurement of lesion thickness and erythema measured with a reflectance erythema metre, both were averaged over 5 areas in each psoriatic lesion and were validated using a previous study which was performed using betamethasome as a reference.
At each visit we measured the full blood count, biochemistry, including urea, electrolytes, liver enzymes, bilirubin, calcium, magnesium, uric acid, glucose, amylase, muscle enzymes, lipids and cholesterol. […]
as §4

[3] = Skin biopsy tissue concentration, upper and lower half, HPLC (Example 2); format: in vivo, human; settings: 7 hours after application, 2.2% sirolimus in capric acid:isopropyl myristate:benzyl alcohol 50:40:10; for concentration at 7 h: human, skin biopsy, topical, 2.2 % sirolimus in the formulation, Subject A
Procedure: as §5

CD4 helper lymphocytes = test: Biopsy immunohistochemistry, CD4 helper lymphocytes; format: in vivo, human; settings: lesion biopsy at end of treatment; control 61/mm^3; P-0.0026 (unpaired T-test)
Procedure: as §1, §2, §3, §4

- concentration at 7 h ([1]; section 1 (surface, 0-0.7 mm), topical, subject A, section 1 (surface, 0-0.7 mm), 7 hours after application, 8% sirolimus in capric acid:benzyl alcohol 50:50, read-out: Sirolimus concentration, skin section 1): 59000 ng/g
- concentration at 7 h ([1]; section 1 (surface, 0-0.7 mm), topical, subject B, section 1 (surface, 0-0.7 mm), 7 hours after application, 8% sirolimus in capric acid:benzyl alcohol 50:50, read-out: Sirolimus concentration, skin section 1): 288000 ng/g
- concentration at 7 h ([1]; section 1 (surface, 0-0.7 mm), topical, subject C, section 1 (surface, 0-0.7 mm), 7 hours after application, 8% sirolimus in capric acid:benzyl alcohol 50:50, read-out: Sirolimus concentration, skin section 1): 301000 ng/g
- concentration at 7 h ([1]; section 1 (surface, 0-0.7 mm), topical, subject D, section 1 (surface, 0-0.7 mm), 7 hours after application, 8% sirolimus in capric acid:benzyl alcohol 50:50, read-out: Sirolimus concentration, skin section 1): 216000 ng/g
- concentration at 7 h ([1]; section 2 (0.7-1.4 mm), topical, subject B, section 2 (0.7-1.4 mm), 7 hours after application, 8% sirolimus in capric acid:benzyl alcohol 50:50, read-out: Sirolimus concentration, skin section 2): 108000 ng/g
- concentration at 7 h ([1]; section 2 (0.7-1.4 mm), topical, subject C, section 2 (0.7-1.4 mm), 7 hours after application, 8% sirolimus in capric acid:benzyl alcohol 50:50, read-out: Sirolimus concentration, skin section 2): 144000 ng/g
- concentration at 7 h ([1]; section 2 (0.7-1.4 mm), topical, subject D, section 2 (0.7-1.4 mm), 7 hours after application, 8% sirolimus in capric acid:benzyl alcohol 50:50, read-out: Sirolimus concentration, skin section 2): 126000 ng/g
- concentration at 7 h ([1]; section 3, topical, subject A, section 3, 7 hours after application, 8% sirolimus in capric acid:benzyl alcohol 50:50, read-out: Sirolimus concentration, skin section 3): 255000 ng/g
- concentration at 7 h ([1]; section 3, topical, subject B, section 3, 7 hours after application, 8% sirolimus in capric acid:benzyl alcohol 50:50, read-out: Sirolimus concentration, skin section 3): 173000 ng/g
- concentration at 7 h ([1]; section 3, topical, subject C, section 3, 7 hours after application, 8% sirolimus in capric acid:benzyl alcohol 50:50, read-out: Sirolimus concentration, skin section 3): 339000 ng/g
- concentration at 7 h ([1]; section 3, topical, subject D, section 3, 7 hours after application, 8% sirolimus in capric acid:benzyl alcohol 50:50, read-out: Sirolimus concentration, skin section 3): 256000 ng/g
- concentration at 7 h ([1]; section 4, topical, subject A, section 4, 7 hours after application, 8% sirolimus in capric acid:benzyl alcohol 50:50, read-out: Sirolimus concentration, skin section 4): 239000 ng/g
- concentration at 7 h ([1]; section 4, topical, subject B, section 4, 7 hours after application, 8% sirolimus in capric acid:benzyl alcohol 50:50, read-out: Sirolimus concentration, skin section 4): 214000 ng/g
- concentration at 7 h ([1]; section 4, topical, subject C, section 4, 7 hours after application, 8% sirolimus in capric acid:benzyl alcohol 50:50, read-out: Sirolimus concentration, skin section 4): 370000 ng/g
- concentration at 7 h ([1]; section 4, topical, subject D, section 4, 7 hours after application, 8% sirolimus in capric acid:benzyl alcohol 50:50, read-out: Sirolimus concentration, skin section 4): 241000 ng/g
- Sirolimus Concentration, lower skin segment ([3]; Subject B, Lower (2), roughly dermis): 0.5 µg/mg
- Sirolimus Concentration, upper skin segment ([3]; Subject B, Upper (1), roughly epidermis): 1.5 µg/mg
- concentration at 7 h ([3]; lower half (roughly dermis), Lower (2), roughly dermis, read-out: Sirolimus Concentration, lower skin segment): 333000 ng/g
- concentration at 7 h ([3]; upper half (roughly epidermis), Upper (1), roughly epidermis, read-out: Sirolimus Concentration, upper skin segment): 0 ng/g
Compound: CO[C@H]1C[C@@H]2CC[C@@H](C)[C@@](O)(O2)C(=O)C(=O)N2CCCC[C@H]2C(=O)O[C@H]([C@H](C)C[C@@H]2CC[C@@H](O)[C@H](OC)C2)CC(=O)[C@H](C)/C=C(\C)[C@@H](O)[C@@H](OC)C(=O)[C@H](C)C[C@H](C)/C=C/C=C/C=C/1C [sirolimus]
- Ki-67 proliferating cells, mean (Ki-67): 55 /mm^3
- sirolimus levels in venous blood ([2]; 2.2% sirolimus in isopropyl myristate 40%, benzyl alcohol 10%, capric acid 50%, three individuals, MSGCMS): no significant levels of sirolimus were detected
- sirolimus levels in venous blood ([2]; 8% sirolimus in capric acid:benzyl alcohol 50:50, four individuals, MSGCMS detects down to 0.1 ng/ml): no significant levels of sirolimus were detected
- contact sensitivity to the topical preparations (chronic plaque psoriasis; 22 analysed patients, one to benzyl alcohol, one to sirolimus and one to both): Three of the twenty-two patients developed contact sensitivity
- Ultrasound thickness, mean (chronic plaque psoriasis; psoriatic lesion, topical twice daily, 2.2% then 8% formulation, vehicle control 2.96, NS): 2.99 mm
- Erythema measurement, mean (chronic plaque psoriasis; reflectance erythema metre, topical twice daily, 2.2% then 8% formulation, vehicle control 33.1, NS): 34.5 arbitrary units
- Clinical Score, mean (chronic plaque psoriasis; scale of 0-24, high values indicating a better result, final score, topical twice daily, 2.2% formulation 6 weeks then 8% formulation 6 weeks, vehicle control 9.1, p = 0.032): 11.2
- CD4 cells, mean (CD4 helper lymphocytes): 32.7 /mm^3

Reference: US20050239724A1, “Skin penetration enhancing components” (Wyeth, priority 1997, published 2005)
